The record followed here is patent US20110288036A1, “Methods for Treating or Preventing Vascular Graft Failure” (priority 2010, published 2011).

Test [1] deals with T1, MK2 (Homo sapiens, UniProt P49137).
T1 construct: purchased Millipore (IC50 Profiler Express / KinaseProfiler service)
Nature of the test: MK2 radiometric kinase assay. Type of test: biochemical. The text has this:
A commercial radiometric assay service was used to test the specificity and potency of MMI-0100 ([…]; SEQ ID NO: 1) by measuring its half maximal inhibitory concentrations (IC50). This quantitative assay measures how much MK2 inhibitor (MMI-0100; […] (SEQ ID NO: 1)) is needed to inhibit 50% of a given biological process or component of a process (i.e., an enzyme, cell, or cell receptor). Specifically, in these assays, a positively charged substrate is phosphorylated with a radiolabeled phosphate group from an ATP if the kinase is not inhibited by an inhibitor peptide. The positively charged substrate then is attracted to a negatively charged filter membrane, quantified with a scintillation counter, and compared to a 100% activity control. ATP concentrations within 15 μM of the apparent Km for ATP were chosen since an ATP concentration near the Km may allow for the kinases to have the same relative amount of phosphorylation activity. […]
For the MK2 radiometric assay, 5-10 mU of MK2 was incubated with 50 mM Na b-glycerophosphate pH 7.5, 0.1 mM EGTA, 30 μM KKLNRTLSVA (SEQ ID NO: 34; a substrate peptide for MK2), 10 mM MgAcetate, and 10 μM of [y-^33P-ATP] in a final reaction volume of 25 μl. […] The washed P30 filtermat was dried and its radioactivity was measured by scintillation counter.
IC50 values for inhibitor peptides were determined using Millipore's IC50 Profiler Express service. […]

For test [2], the system named is human saphenous vein (HSV). In words: Muscle bath: sodium nitroprusside-induced relaxation of human saphenous vein. The class given is cell-based. The settings on record: for relaxation: 100 μM pretreatment, phenylephrine 10^-6 M, percent relaxation per method. How it is done: De-identified, discarded segments of human saphenous vein (HSV) were collected from consented patients undergoing coronary artery or peripheral vascular bypass surgeries. HSV segments were stored in a saline solution until the end of the surgical procedure, at which time they were placed in cold transplant harvest buffer (100 mM potassium lactobionate, 25 mM KH2PO4, 5 mM MgSO4, 30 mM Raffinose, 5 mM Adenosine, 3 mM Glutathione, 1 mM Allopurinol, 50 g/L Hydroxyethyl starch, pH 7.4). The vessels were used within 24 hours of harvest. Using sterile technique, HSV segments were transferred to a 60-mm Petri dish under a sterile hood. The edges (0.5 mm) of each segment were removed with a blade and excess adventitial tissue and fat removed with minimal manipulation. HSV segments were cut into consecutive rings of approximately 1.0 mm in width to be utilized for organ culture or muscle bath experiments. Two rings from each segment were immediately fixed in 10% formalin at 37° C. for 30 min to obtain pre-culture intimal thickening measurements.
In preparation for testing vein segment functional viability, HSV rings were weighed and their lengths recorded. To focus on smooth muscle responses, the endothelium was mechanically denuded by rolling the luminal surface of each ring at the tip of a fine vascular forceps before suspension in a muscle bath containing a bicarbonate buffer (120 mM NaCl, 4.7 mM KCl, 1.0 mM MgSO4, 1.0 mM NaH2PO4, 10 mM glucose, 1.5 mM CaCl2, and 25 mM […], pH 7.4) equilibrated with 95% O2 and 5% CO2 at 37° C. The rings were stretched and the length progressively adjusted until maximal tension was obtained. […] Rings were maintained at a resting tension of 1 g, which produces maximal responses to contractile agonists as previously determined, and equilibrated for 2 hours in buffer. […]
HSV rings were first contracted with 110 mM KCl (with equimolar replacement of NaCl in bicarbonate buffer) and the generated force was measured. […] Rings were relaxed with a cumulative log dose of sodium nitroprusside (SNP), a nitric oxide donor, and the force generated was recorded. […] Rings were then incubated with either buffer alone or buffer plus 100 μM of MMI-0100 ([…] (SEQ ID NO: 1)) for 2 hours, followed by treatment with the same doses of PE and SNP, and the forces generated again recorded. Measured force was normalized for ring weight and length and percent relaxation was calculated; force generated with 10^−6 M of PE was set as 0% relaxation.
The enhancing effect of MMI-0100 ([…]; SEQ ID NO: 1) on smooth muscle relaxation was examined by pre-treating harvested human saphenous vein (HSV) with MMI-0100 ([…]; SEQ ID NO: 1) before SNP treatment. […] Percentage of relaxation at 0, 0.01, 0.1, and 1.0 μM of SNP was measured. […]

For test [3], the system named is mouse lung endothelial cells (MLEC). Nature of the test: MCP-1 immunoassay of MLEC conditioned medium. Conditions: even at high doses. The class given is cell-based. How it is done:
Monocyte Chemotractic Protein-1 (MCP-1) production from mouse lung endothelial cells (MLEC) was analyzed using conditioned culture medium by Quantikine® Mouse CCL/JE/MCP-1 Immunoassay (R&D Systems) following the manufacturer's instructions. Briefly, the assay employs a quantitative sandwich enzyme immunoassay technique in which a monoclonal antibody specific for MCP-1 has been pre-coated onto a microplaste. Standards and samples are pipetted into the wells and any MCP-1 present is bound by the immobilized antibody. After washing away any unbound substances, an enzyme-linked polyclonal antibody specific for MCP-1 is added to the wells. Following a wash to remove any unbound antibody-enzyme reagent, a substrate solution is added to the wells and color develops in proportion to the amount of MCP-1 bound in the initial step. The color development is stopped and the intensity of the color is measured at 450 nm, with wavelength correction at 540 nm or 570 nm.

T1 sequence (P49137 whole entry, species assumed): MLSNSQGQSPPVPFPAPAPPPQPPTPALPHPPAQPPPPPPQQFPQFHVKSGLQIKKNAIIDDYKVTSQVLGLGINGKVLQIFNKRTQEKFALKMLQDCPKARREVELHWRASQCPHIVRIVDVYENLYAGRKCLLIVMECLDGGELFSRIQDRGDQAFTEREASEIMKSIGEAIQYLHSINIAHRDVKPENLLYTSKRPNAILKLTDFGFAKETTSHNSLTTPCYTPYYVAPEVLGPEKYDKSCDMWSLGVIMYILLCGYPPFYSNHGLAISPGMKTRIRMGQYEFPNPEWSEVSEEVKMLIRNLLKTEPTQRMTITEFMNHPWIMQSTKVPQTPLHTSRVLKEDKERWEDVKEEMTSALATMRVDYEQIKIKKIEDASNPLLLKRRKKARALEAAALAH

Turning to YARAAARQARAKALARQLGVAA [MMI-0100], the “inhibition of MK2 activity” value in test [1] (concentration used for specificity profiling (Table 2)) was greater than 95%. Moreover, the “Percent Activity, MK2” value in test [1] (peptide 100 μM) was less than 5%. For the same sequence, the “increase in relaxation compared to control-pretreated HSV” value in test [2] (30 μM, 2 hrs pretreatment, norepinephrine contraction, SNP 0-1 μM) is “about 40%”. The relaxation in test [2] (SNP 10^-7 M, untreated control 72.768±6.99) is 92.54±3.09; in test [2] (SNP 10^-8 M, untreated control 10.825±5.62), 25.622±6.38. Moreover, in test [3], the MCP-1 production result was “did not stimulate MCP-1 production, even at high doses”.
